Like-named read-outs stand apart in the source and are kept apart here.
Key:
[1] = target: Beta Secretase enzyme (BACE) (Homo sapiens, UniProt P56817); test: In vitro enzymatic BACE FRET (fluorescence resonance energy transfer) assay; assay type: biochemical;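 also: fluorescence read after 1 h with 50 nM quenched peptide substrate spanning the BACE cleavage site, in pH 4.2 acetate buffer containing 10% DMSO and nonionic detergent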
CYP2D6 = CYP2D6 (Homo sapiens, UniProt P10635); test: CYP2D6 inhibition assay (bufuralol, pooled human liver microsomes)
[2] = Microsomal stability assay, rat liver microsomes;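 also: rat liver microsomes (0.25 mg/mL) with about 1 µM compound plus 1 mM NADPH, pH 7.4, 37 °C for 30 min, parent left measured by LC-MS/MS against 0 min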
[3] = Microsomal stability assay, human liver microsomes;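 also: pooled human liver microsomes at 0.25 mg/mL with 1 µM compound and NADPH at 37 °C, pH 7.4, for 30 min, unchanged parent quantified by LC-MS/MS against the 0 min sample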
CYP3A4 (CYP3A) = CYP3A4 (CYP3A) (Homo sapiens, UniProt P08684); test: in vitro; conditions: microsomes, pH 7.4;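 also: inhibition of CYP3A-mediated 1-hydroxymidazolam formation after 10 min incubation with NADPH, quantified by HPLC MS relative to metabolite produced without test compound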
[4] = test system: Aβ40 in conditioned medium of cells stably expressing Amyloid Precursor Protein (APP); test: In vitro BACE cell-based assay (Aβ40 in conditioned medium, sandwich ELISA); conditions: Homo sapiens, HEK293, HEK cells;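 also: compounds added as a dilution series, secreted peptide quantified by europium time-resolved fluorescence readout, potency fitted from percent of control versus compound concentration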
[5] = BACE enzyme assay, read-out: BACE1 FRET assay
[6] = 2D6 IC50 (uM), CYP enzyme inhibition
[7] = read-out: BACE1 FRET assay (IC50)
[8] = read-out: HEK cell assay (IC50)

CYP2D6, sequence (P10635 whole entry): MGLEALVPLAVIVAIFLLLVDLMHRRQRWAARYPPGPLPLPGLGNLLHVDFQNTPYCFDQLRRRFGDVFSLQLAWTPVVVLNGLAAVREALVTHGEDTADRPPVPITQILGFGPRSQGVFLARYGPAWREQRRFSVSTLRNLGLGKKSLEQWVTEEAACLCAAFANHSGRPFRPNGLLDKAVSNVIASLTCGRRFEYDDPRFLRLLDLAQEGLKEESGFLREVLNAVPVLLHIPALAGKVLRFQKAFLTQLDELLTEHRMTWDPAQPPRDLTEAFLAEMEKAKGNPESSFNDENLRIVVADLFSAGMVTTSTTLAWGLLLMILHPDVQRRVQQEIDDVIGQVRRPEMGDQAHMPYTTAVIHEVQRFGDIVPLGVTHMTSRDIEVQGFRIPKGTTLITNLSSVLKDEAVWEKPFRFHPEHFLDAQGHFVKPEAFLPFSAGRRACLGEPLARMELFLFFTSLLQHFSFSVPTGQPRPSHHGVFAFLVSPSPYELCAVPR
Beta Secretase enzyme (BACE), sequence (P56817 46-501): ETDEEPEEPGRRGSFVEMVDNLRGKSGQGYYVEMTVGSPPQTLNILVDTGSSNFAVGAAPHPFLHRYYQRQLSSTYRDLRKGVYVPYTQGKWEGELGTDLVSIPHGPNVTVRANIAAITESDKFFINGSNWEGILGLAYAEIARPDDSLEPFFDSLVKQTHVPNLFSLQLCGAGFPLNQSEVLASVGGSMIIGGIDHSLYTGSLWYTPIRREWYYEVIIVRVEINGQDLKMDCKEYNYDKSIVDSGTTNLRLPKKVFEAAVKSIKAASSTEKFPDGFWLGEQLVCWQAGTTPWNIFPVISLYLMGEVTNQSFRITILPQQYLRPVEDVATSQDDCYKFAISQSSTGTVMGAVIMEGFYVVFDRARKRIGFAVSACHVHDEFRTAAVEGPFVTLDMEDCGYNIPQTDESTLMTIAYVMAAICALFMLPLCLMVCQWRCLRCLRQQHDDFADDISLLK
CYP3A4 (CYP3A), sequence (P08684 2-503): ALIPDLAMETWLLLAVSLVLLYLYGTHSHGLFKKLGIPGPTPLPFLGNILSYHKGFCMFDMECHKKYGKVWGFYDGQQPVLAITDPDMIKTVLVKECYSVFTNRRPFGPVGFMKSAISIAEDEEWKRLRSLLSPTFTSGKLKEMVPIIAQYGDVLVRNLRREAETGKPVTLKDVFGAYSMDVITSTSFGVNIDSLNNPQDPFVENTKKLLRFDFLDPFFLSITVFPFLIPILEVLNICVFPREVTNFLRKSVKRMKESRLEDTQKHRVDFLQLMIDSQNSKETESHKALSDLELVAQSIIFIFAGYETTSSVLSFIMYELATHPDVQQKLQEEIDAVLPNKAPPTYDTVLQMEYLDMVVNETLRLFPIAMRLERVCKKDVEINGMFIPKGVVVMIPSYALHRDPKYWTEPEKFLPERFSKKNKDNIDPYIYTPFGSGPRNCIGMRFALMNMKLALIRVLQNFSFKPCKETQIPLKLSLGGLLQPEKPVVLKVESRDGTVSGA

| SMILES | IC50 [1, 5] [nM] | IC50 (CYP2D6; [6]) [µM] | RLM ([2]; rat liver microsomal data) [µL/min/mg] | HLM ([3]; human liver microsomal data) [µL/min/mg] | IC50 (CYP3A4 (CYP3A)) [nM] | IC50 ([4]; read-out: HEK cell assay) [nM] | IC50 [1, 7] [nM] | IC50 (CYP2D6; 2D6 IC50, CYP2D6 inhibition) [µM] | RLM ([2]; rat liver microsomes) [µL/min/mg] | HLM ([3]; human liver microsomes) [µL/min/mg] | IC50 [4, 8] [nM] |
| --- | --- | --- | --- | --- | --- | --- | --- | --- | --- | --- | --- |
| CO[C@H](C)C(=O)N[C@@H](Cc1ccccc1)[C@H](O)CN[C@H]1CC2(CCC2)Oc2c1cc(CC(C)C)cc2-n1ccnc1 [compound 547] | 42 | 4.4 | 260 | 53 | 100 | 73 |  |  |  |  |  |
| CC(C)Cc1cnc2c(c1)[C@@H](NC[C@@H](O)[C@H](Cc1ccc3c(c1)OCO3)NC(=O)[C@@H]1CCCO1)CC1(CCC1)O2 [compound 548] | 74 | 3.7 | 184 | 57 | 300 | 623 |  |  |  |  |  |
| COCC(=O)N[C@@H](Cc1ccc(F)cc1)[C@H](O)CN[C@H]1CC2(CCC2)Oc2c1cc(CC(C)(C)C)nc2-c1ccncc1 [compound 549] | 71 | 2 | 122 | 38 | 100 | 296 |  |  |  |  |  |
| COCC(=O)N[C@@H](Cc1cccc(F)c1)[C@H](O)CN[C@H]1CC2(CCC2)Oc2c(-c3ccncc3)cc(Cl)cc21 [compound 550] | 42 | 0.5 | 315 | 338 | 200 | 474 |  |  |  |  |  |
| CC(C)Cc1cnc2c(c1)[C@@H](NC[C@@H](O)[C@H](Cc1ccc3c(c1)OCO3)NC(=O)[C@H]1CCCO1)CC1(CCC1)O2 [compound 551] | 44 | 5.7 | 112 | 33 | 100 | 367 |  |  |  |  |  |
| CC(C)Cc1cnc2c(c1)[C@@H](NC[C@@H](O)[C@H](Cc1ccc3c(c1)OCO3)NC(=O)[C@H](C)F)CC1(CCC1)O2 [compound 552] | 49 | 2.3 | 253 | 73 | 200 | 369 |  |  |  |  |  |
| CO[C@H](C)C(=O)N[C@@H](Cc1ccc2c(c1)OCO2)[C@H](O)CN[C@@H]1c2cc(CC(C)(C)C)cnc2OC2(CCC2)[C@@H]1F [compound 554] | 57 | 6.5 | 173 | 63 | 200 | 1020 |  |  |  |  |  |
| CO[C@H](C)C(=O)N[C@@H](Cc1ccc2c(c1)OCO2)[C@H](O)CN[C@H]1CC2(CCC2)Oc2ccc(C[C@H](C)F)cc21 [compound 555] | 3420 | 0.9 | 543 | 269 | 400 | > 10000 |  |  |  |  |  |
| CO[C@H](C)C(=O)N[C@@H](Cc1ccc2c(c1)OCO2)[C@H](O)CN[C@H]1CC2(CCC2)Oc2ccc(C[C@@H](C)F)cc21 [compound 556] | 718 | 1 | 353 | 211 | 300 | 446 |  |  |  |  |  |
| COCC(=O)N[C@@H](Cc1ccc2c(c1)OCO2)[C@H](O)CN[C@H]1CC2(CCC2)Oc2ccc(C[C@H](C)F)cc21 [compound 557] | 3790 | 0.5 | 344 | 193 | 300 | > 10000 |  |  |  |  |  |
| COCC(=O)N[C@@H](Cc1cccc(F)c1)[C@H](O)CN[C@H]1CC2(CCC2)Oc2ccc(C[C@@H](C)F)cc21 [compound 559] | 27 | 1.1 | 829 | 706 | 7100 | 38 |  |  |  |  |  |
| COCC(=O)N[C@@H](Cc1cc(F)cc(F)c1)[C@H](O)CN[C@H]1CC2(CCC2)Oc2c(-c3ccncc3)cc(Cl)cc21 [compound 560] | 49 | 0.4 | 829 | 209 | 200 | 58 |  |  |  |  |  |
| CO[C@H](C)C(=O)N[C@@H](Cc1cc(F)cc(F)c1)[C@H](O)CN[C@H]1CC2(CCC2)Oc2c(-c3ccncc3)cc(Cl)cc21 [compound 561] | 92 | 0.4 | 426 | 113 | 100 | 262 |  |  |  |  |  |
| COCC(=O)N[C@@H](Cc1ccc(F)cc1)[C@H](O)CN[C@H]1CC2(CCC2)Oc2c(-c3ccncc3)cc(CC(C)(C)C)cc21 [compound 562] | 27 | 3.6 | 60 | 24 | 100 | 21 |  |  |  |  |  |
| COCC(=O)N[C@@H](Cc1cccc(F)c1)[C@H](O)CN[C@H]1CC2(CCC2)Oc2c1cc([C@H](n1ccnc1)C(C)(C)C)cc2-n1ccnc1 [compound 563] | 12000 | 0.4 | 40 | 40 | 100 | > 10000 |  |  |  |  |  |
| CC(C)OCC(=O)N[C@@H](Cc1ccc(F)cc1)[C@H](O)CN[C@H]1CC2(CCC2)Oc2ncc(CC(C)(C)C)cc21 [compound 565] | 49 | 23.8 | 829 | 921 | 600 | 267 |  |  |  |  |  |
| CC[C@@H](OC)C(=O)N[C@@H](Cc1ccc(F)cc1)[C@H](O)CN[C@H]1CC2(CCC2)Oc2ncc(CC(C)(C)C)cc21 [compound 566] | 26 | 13 | 590 | 392 | 300 | 165 |  |  |  |  |  |
| CO[C@H](C)C(=O)N[C@@H](Cc1cccc(F)c1)[C@H](O)CN[C@H]1CC2(CCC2)Oc2c(-c3ccncc3)cc(CC(C)(C)O)cc21 [compound 567] | 39 | 2.2 | 120 | 67 | 100 | 9 |  |  |  |  |  |
| COCC(=O)N[C@@H](Cc1cc(F)cc(F)c1)[C@H](O)CN[C@H]1CC2(CCC2)Oc2c1cc(CC(C)(C)C)nc2Nc1cccnc1 [compound 568] | 25 | 9.3 | 304 | 214 | 200 | 19 |  |  |  |  |  |
| COCC(=O)N[C@@H](Cc1ccc(F)cc1)[C@H](O)CN[C@H]1CC2(CCC2)Oc2ncc(C(F)(F)C(C)(C)C)cc21 [compound 569] | 165 | ≥ 27 | 423 | 238 | 700 | 992 |  |  |  |  |  |
| CC(=O)N[C@@H](Cc1ccc(F)cc1)[C@H](O)CN[C@H]1CC2(CCC2)Oc2ncc(C(F)(F)C(C)(C)C)cc21 [compound 570] | 136 | 7.1 | 162 | 101 | 800 | 405 |  |  |  |  |  |
| COCC(=O)N[C@@H](Cc1cc(F)cc(F)c1)[C@H](O)CN[C@H]1CC2(CCC2)Oc2c1cc(CC(C)(C)C)nc2Nc1ccncc1 [compound 571] | 53 | 2.3 | 193 | 142 | 100 | 3 |  |  |  |  |  |
| CC[C@H](OC)C(=O)N[C@@H](Cc1ccc(F)cc1)[C@H](O)CN[C@H]1CC2(CCC2)Oc2ncc(CC(C)(C)C)cc21 [compound 572] | 102 | 8.1 | 569 | 290 | 200 | 94 |  |  |  |  |  |
| CC(=O)N[C@@H](Cc1ccc2c(c1)OCO2)[C@H](O)CN[C@H]1CC2(CCC2)Oc2ncc(C(F)(F)C(C)(C)C)cc21 [compound 574] | 220 | 3.5 | 146 | 46 | 200 | 606 |  |  |  |  |  |
| COCC(=O)N[C@@H](Cc1ccc2c(c1)OCO2)[C@H](O)CN[C@H]1CC2(CCC2)Oc2ncc([C@H]3CC3(C)C)cc21 [compound 576] |  |  |  |  | 100 |  | 328 | 2.7 | 209 | 31 | 249 |
| CO[C@H](C)C(=O)N[C@@H](Cc1ccc2c(c1)OCO2)[C@H](O)CN[C@H]1CC2(CCC2)Oc2ncc([C@H]3CC3(C)C)cc21 [compound 580] |  |  |  |  | 100 |  | 357 | 4.4 | 186 | 42 | 776 |
| CC(=O)N[C@@H](Cc1cc(F)cc(F)c1)[C@H](O)CN[C@H]1CC2(CCC2)Oc2c(-c3ccncc3)cc(Cl)cc21 [compound 582] |  |  |  |  | 100 |  | 24 | 0.4 | 829 | 97 | 57 |
| CC(=O)N[C@@H](Cc1cc(F)cc(F)c1)[C@H](O)CN[C@H]1CC2(CCC2)Oc2c1cc(CC(C)(C)C)nc2-c1ccncc1 [compound 584] |  |  |  |  | 100 |  | 11 | 14.5 | 50 | 18 | 13 |
| CO[C@H](C)C(=O)N[C@@H](Cc1cccc(F)c1)[C@H](O)CN[C@H]1CC2(CCC2)Oc2c(-c3ccncc3)cc(CC(C)(C)C)cc21 [compound 585] |  |  |  |  | 50 |  | 16 | 0.75 | 120 | 65.5 | 12 |
